Data published in US6224849A, “Alkylaminobenzothiazole and-benzoxazole derivatives” (Janssen Pharmaceutica N.V., priority 1996, dated 2001).

molecular target: T1, cloned human D4 receptors (Homo sapiens, UniProt P21917); assay: In vitro radioligand binding affinity for dopamine D4 receptor (3H-spiperone competition, transfected CHO cell membranes); conditions: membranes of transfected CHO cells expressing cloned human D4 receptors, read-out: pIC50 (-log IC50), dopamine D4 receptor (converted)
T1 construct: purchased Receptor Biology, Maryland, USA; host or cells: transfected Chinese Hamster Ovary (CHO) cells (membrane preparation)
T1 sequence (P21917 1-419): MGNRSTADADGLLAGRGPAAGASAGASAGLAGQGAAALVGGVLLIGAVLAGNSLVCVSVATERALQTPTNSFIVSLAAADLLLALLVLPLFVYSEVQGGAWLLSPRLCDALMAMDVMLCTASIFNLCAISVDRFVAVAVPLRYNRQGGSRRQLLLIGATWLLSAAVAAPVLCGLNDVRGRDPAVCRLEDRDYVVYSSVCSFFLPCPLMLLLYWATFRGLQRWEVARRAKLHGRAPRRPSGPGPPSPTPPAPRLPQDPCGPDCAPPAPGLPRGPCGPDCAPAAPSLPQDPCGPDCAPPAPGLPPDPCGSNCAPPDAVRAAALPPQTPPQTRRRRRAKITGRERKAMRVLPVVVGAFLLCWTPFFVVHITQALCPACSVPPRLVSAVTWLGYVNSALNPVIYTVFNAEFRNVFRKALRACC
Method: In vitro binding affinity for dopamine D4 receptor
The interaction of the compounds of formula (I) with the dopamine D4 receptors was assessed in in vitro radioligand binding experiments.
A low concentration of ^3 H-spiperone with a high binding affinity for the dopamine D4 receptor was incubated with a sample of a membrane preparation of transfected Chinese Hamster Ovary (CHO) cells which express cloned human D4 receptors (Receptor Biology, Maryland, USA) in a buffered medium. When equilibrium of binding was reached, the receptor bound radioactivity was separated from the non-bound radioactivity, and the receptor bound activity was counted. The interaction of the test compounds, added to the incubation mixture in various concentrations, with the dopamine D4 receptor was assessed in competition binding experiments as described by Schotte et al. (Psychopharmacology, 1996, 124, 57-73).

SMILES | IC50 [nM]
c1ccc(N2CCN(CCNc3nc4ccccc4s3)CC2)cc1 [Compound 6, N-[2-(4-phenyl-1-piperazinyl)ethyl]-2-benzothiazolamine] | ≤ 100
COc1ccc(N2CCN(CCNc3nc4ccccc4s3)CC2)cc1 [Compound 21] | ≤ 100
COc1ccc(N2CCN(CCNc3nc4ccccc4s3)CC2)cc1OC [Compound 23] | ≤ 100
Fc1ccc(N2CCN(CCCNc3nc4ccccc4s3)CC2)cc1 [Compound 25] | ≤ 100
c1ccc2c(N3CCN(CCNc4nc5ccccc5s4)CC3)cccc2c1 [Compound 119] | ≤ 100
Clc1ccc(N2CCN(CCNc3nc4ccccc4s3)CC2)cc1 [Compound 134] | ≤ 100

Further lines, results first:

IC50 [nM] | SMILES
≤ 100 | CN(CCCN1CCN(c2ccc(Cl)c(Cl)c2)CC1)c1nc2ccccc2s1 [Compound 100]
≤ 100 | CN(CCN1CCN(c2ccc(Cl)c(Cl)c2)CC1)c1nc2ccccc2s1 [Compound 101]
≤ 100 | Clc1ccc(N2CCN(CCN(Cc3ccccc3)c3nc4ccccc4s3)CC2)cc1Cl [Compound 106]
